Test results: patent publication US10202361B2, “Pyridazinones as herbicides” (E I DU PONT DE NEMOURS AND COMPANY, priority 2014, dated 2019)
Read-outs that look alike come from different tables or passages of the source.

Key:
Assay type in all cases: in vivo
[1] = system: chickweed (common chickweed, Stellaria media); assay: Test C postemergence greenhouse herbicide test
Text: At the same time, plants selected from these crop and weed species and also barley (winter barley, Hordeum vulgare), canarygrass (Phalaris minor), windgrass (Apera spica-venti), deadnettle (henbit deadnettle, Lamium amplexicaule), and chickweed (common chickweed, Stellaria media) were planted in pots containing Redi-Earth® planting medium (Scotts Company, 14111 Scottslawn Road, Marysville, Ohio 43041) comprising spaghnum peat moss, vermiculite, wetting agent and starter nutrients and treated with postemergence applications of test chemicals formulated in the same manner. Plants ranged in height from 2 to 18 cm (1- to 4-leaf stage) for postemergence treatments. Treated plants and controls were maintained in a greenhouse for 13 to 15 d, after which time all species were compared to controls and visually evaluated. Plant response ratings, summarized in Table C, are based on a scale of 0 to 100 where 0 is no effect and 100 is complete control. A dash (-) response means no test result.

[2] = system: barnyardgrass (Echinochloa crus-galli); assay: Test B flooded paddy test; settings: Echinochloa crus-galli, 312 h; Flood, 125 g ai/ha; scale of 0 to 100, 0 is no effect, 100 is complete control; 13 to 15 d; read-out: Plant response rating, Barnyardgrass
In short: (§1)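 Plants at the 2-leaf stage were flooded to 3 cm and treated by applying compound directly to the paddy water, with depth held constant throughout. After 13–15 d in a greenhouse, injury was rated visually against controls on a 0 (no effect) to 100 (complete control) scale.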

[3] = system: ducksalad (Heteranthera limosa); assay: Test B flooded paddy test; settings: Heteranthera limosa, 312 h; Flood, 125 g ai/ha; scale of 0 to 100, 0 is no effect, 100 is complete control; 13 to 15 d; read-out: Plant response rating, Ducksalad
In short: as §1

[4] = system: sedge, umbrella (small-flower umbrella sedge, Cyperus difformis); assay: Test B flooded paddy test; settings: Cyperus difformis, 312 h; Flood, 125 g ai/ha; scale of 0 to 100, 0 is no effect, 100 is complete control; 13 to 15 d; read-out: Plant response rating, Sedge, Umbrella
In short: as §1

rice (Oryza sativa) = assay: Test B flooded paddy test; settings: Oryza sativa, 312 h; Flood, 125 g ai/ha; scale of 0 to 100, 0 is no effect, 100 is complete control; 13 to 15 d; read-out: Plant response rating, Rice
In short: as §1

[5] = system: ragweed (common ragweed, Ambrosia elatior); assay: Test C pre-/postemergence greenhouse herbicide test; settings: Ambrosia artemisiifolia, Ragweed, read-out: Plant response rating; for pest or weed control at 31 g/ha: 31 g ai/ha; for pest or weed control at 62 g/ha: 62 g ai/ha; for pest or weed control at 125 g/ha: 125 g ai/ha; for pest or weed control at 250 g/ha: 250 g ai/ha
In short: (§2)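 Seeds sown in loam soil–sand blend were treated preemergence; plants at 2 to 18 cm (1- to 4-leaf stage) in peat-based medium were treated postemergence. Test chemicals were formulated in a non-phytotoxic solvent mixture with surfactant. After 13 to 15 d in greenhouse, injury was rated visually versus controls, 0 (no effect) to 100 (complete control).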

[6] = system: pigweed (Amaranthus retroflexus); assay: as above; settings: Amaranthus retroflexus, Pigweed, read-out: Plant response rating; for pest or weed control at 62 g/ha: 62 g ai/ha; for pest or weed control at 125 g/ha: 125 g ai/ha; for pest or weed control at 250 g/ha: 250 g ai/ha; for pest or weed control at 31 g/ha: 31 g ai/ha
In short: as §2

[7] = system: johnsongrass (Sorghum halepense); assay: as above; settings: Sorghum halepense, Johnsongrass, read-out: Plant response rating; for pest or weed control at 31 g/ha: 31 g ai/ha; for pest or weed control at 62 g/ha: 62 g ai/ha; for pest or weed control at 125 g/ha: 125 g ai/ha; for pest or weed control at 250 g/ha: 250 g ai/ha
In short: as §2

[8] = system: crabgrass, Large (large crabgrass, Digitaria sanguinalis); assay: as above; settings: Digitaria sanguinalis, Crabgrass, Large, read-out: Plant response rating; for pest or weed control at 31 g/ha: 31 g ai/ha; for pest or weed control at 62 g/ha: 62 g ai/ha; for pest or weed control at 125 g/ha: 125 g ai/ha; for pest or weed control at 250 g/ha: 250 g ai/ha
In short: as §2

[9] = system: wheat (winter wheat, Triticum aestivum); assay: as above; settings: Triticum aestivum, Wheat, read-out: Plant response rating; for plant injury at 31 g/ha: 31 g ai/ha; for plant injury at 62 g/ha: 62 g ai/ha; for plant injury at 125 g/ha: 125 g ai/ha; for plant injury at 250 g/ha: 250 g ai/ha
In short: as §2

[10] = system: oilseed rape (Brassica napus); assay: as above; settings: Oilseed Rape
In short: as §2

## Cc1cc(=O)n(-c2ccc(C(F)(F)F)cc2)nc1Cc1ccnc(C(F)(F)F)c1 [Compound 2, 5-methyl-2-[4-(trifluoromethyl)phenyl]-6-[[2-(trifluoromethyl)-4-pyridinyl]methyl]-3(2H)-pyridazinone]
[1]; 31 g ai/ha
  Plant response rating: 60
[1]; 62 g ai/ha
  Plant response rating: 70
[1]; 125 g ai/ha
  Plant response rating: 90
[1]; 250 g ai/ha
  Plant response rating: 90
[2]
  pest or weed control at 125 g/ha: 0%
[3]
  pest or weed control at 125 g/ha: 10%
[4]
  pest or weed control at 125 g/ha: 80%
Rice (Oryza sativa)
  plant injury at 125 g/ha: 0%
[5]; post-emergence, Postemergence
  pest or weed control at 31 g/ha: 25%
  pest or weed control at 62 g/ha: 60%
  pest or weed control at 125 g/ha: 60%
[5]; pre-emergence, Preemergence
  pest or weed control at 31 g/ha: 15%
  pest or weed control at 62 g/ha: 60%
  pest or weed control at 125 g/ha: 60%
  pest or weed control at 250 g/ha: 60%
[6]; post-emergence, Postemergence
  pest or weed control at 62 g/ha: 55%
  pest or weed control at 125 g/ha: 60%
  pest or weed control at 250 g/ha: 60%
[6]; pre-emergence, Preemergence
  pest or weed control at 31 g/ha: 100%
  pest or weed control at 62 g/ha: 100%
  pest or weed control at 125 g/ha: 100%
  pest or weed control at 250 g/ha: 100%
[7]; post-emergence, Postemergence
  pest or weed control at 31 g/ha: 5%
  pest or weed control at 62 g/ha: 5%
  pest or weed control at 125 g/ha: 10%
  pest or weed control at 250 g/ha: 10%
[7]; pre-emergence, Preemergence
  pest or weed control at 31 g/ha: 65%
  pest or weed control at 62 g/ha: 70%
  pest or weed control at 125 g/ha: 80%
  pest or weed control at 250 g/ha: 90%
[8]; post-emergence, Postemergence
  pest or weed control at 31 g/ha: 5%
  pest or weed control at 62 g/ha: 5%
  pest or weed control at 125 g/ha: 15%
  pest or weed control at 250 g/ha: 35%
[8]; pre-emergence, Preemergence
  pest or weed control at 31 g/ha: 75%
  pest or weed control at 62 g/ha: 80%
  pest or weed control at 125 g/ha: 100%
  pest or weed control at 250 g/ha: 100%
[9]; post-emergence, Postemergence
  plant injury at 31 g/ha: 5%
  plant injury at 62 g/ha: 5%
  plant injury at 125 g/ha: 5%
  plant injury at 250 g/ha: 5%
[9]; pre-emergence, Preemergence
  plant injury at 62 g/ha: 0%
  plant injury at 125 g/ha: 10%
  plant injury at 250 g/ha: 30%
[10]; Postemergence, 31 g ai/ha
  Plant response rating: 5
[10]; Postemergence, 62 g ai/ha
  Plant response rating: 30
[10]; Postemergence, 125 g ai/ha
  Plant response rating: 45
[10]; Postemergence, 250 g ai/ha
  Plant response rating: 50
[10]; Preemergence, 31 g ai/ha
  Plant response rating: 100
[10]; Preemergence, 62 g ai/ha
  Plant response rating: 100
[10]; Preemergence, 125 g ai/ha
  Plant response rating: 100
[10]; Preemergence, 250 g ai/ha
  Plant response rating: 100

## Cc1cc(Oc2ccnc(C(F)(F)F)c2)nn(-c2ccc(C(F)(F)F)cc2)c1=O [Compound 6, 4-methyl-2-[4-(trifluoromethyl)phenyl]-6-[[2-(trifluoromethyl)-4-pyridinyl]oxy]-3(2H)-pyridazinone]
[1]; 31 g ai/ha
  Plant response rating: 80
[1]; 62 g ai/ha
  Plant response rating: 95
[1]; 125 g ai/ha
  Plant response rating: 95
[1]; 250 g ai/ha
  Plant response rating: 98
[2]
  pest or weed control at 125 g/ha: 0%
[3]
  pest or weed control at 125 g/ha: 0%
[4]
  pest or weed control at 125 g/ha: 0%
Rice (Oryza sativa)
  plant injury at 125 g/ha: 0%
[5]; post-emergence, Postemergence
  pest or weed control at 31 g/ha: 50%
  pest or weed control at 62 g/ha: 55%
  pest or weed control at 125 g/ha: 80%
  pest or weed control at 250 g/ha: 80%
[6]; post-emergence, Postemergence
  pest or weed control at 31 g/ha: 85%
  pest or weed control at 62 g/ha: 95%
  pest or weed control at 125 g/ha: 95%
  pest or weed control at 250 g/ha: 95%
[7]; post-emergence, Postemergence
  pest or weed control at 31 g/ha: 5%
  pest or weed control at 62 g/ha: 10%
  pest or weed control at 125 g/ha: 20%
  pest or weed control at 250 g/ha: 40%
[8]; post-emergence, Postemergence
  pest or weed control at 31 g/ha: 10%
  pest or weed control at 62 g/ha: 20%
  pest or weed control at 125 g/ha: 30%
  pest or weed control at 250 g/ha: 35%
[9]; post-emergence, Postemergence
  plant injury at 31 g/ha: 10%
  plant injury at 62 g/ha: 10%
  plant injury at 125 g/ha: 15%
  plant injury at 250 g/ha: 25%
[10]; Postemergence, 31 g ai/ha
  Plant response rating: 85
[10]; Postemergence, 62 g ai/ha
  Plant response rating: 85
[10]; Postemergence, 125 g ai/ha
  Plant response rating: 95
[10]; Postemergence, 250 g ai/ha
  Plant response rating: 95
